Results from patent publication US5242684A, “Antimicrobial, low toxicity, non-irritating composition comprising a blend of bis-quaternary ammonium compounds coprecipitated with a copolymer of vinylpyrrolidone and an acrylamido or vinyl quaternary ammonium monomer” (ISP Investments Inc., priority 1991, dated 1993).

Legend:
LD50 toxicity (on rats) = conditions: rat, in vivo
E.Coli = test: Minimum Inhibitory Concentration (MIC) against E.Coli; type: cell-based; conditions: Gram negative, coprecipitates at 50:50 wt. ratio with GAFQUAT HS-100, unit assumed
Text: The antimicrobial activity of the products herein are represented by their Minimum Inhibitory Concentration (MIC) against E.Coli, a Gram negative microorganism. Their effect on skin is indicated by an Irritation Index. These properties are presented in the Table below for the individual compounds in blend D and the invention composition of several D, H and L blend compositions coprecipitated in a 50:50 wt. ratio with GAFQUAT® HS-100.

| SMILES | LD50 (LD50 toxicity (on rats)) [mg/kg] | MIC (E.Coli) [µg/mL] |
| --- | --- | --- |
| CCCCCCCCCCCC[N+](C)(C)CCOCCOCC[N+](C)(C)CCCCCCCCCCCC [A compound in D blend] | 300 | 100 |
| CCCCCCCCCCCCCC[N+](C)(C)CCOCCOCC[N+](C)(C)CCCCCCCCCCCC [B compound in D blend] | 700 | 50 |
| CCCCCCCCCCCCCC[N+](C)(C)CCOCCOCC[N+](C)(C)CCCCCCCCCCCCCC [C compound in D blend] | 950 | 125 |
